This is an account of results in article PMC12322260, “Anticancer activity of triterpene glycosides from the sea star Solaster pacificus” (Scientific Reports, 2025).

Structures are written as SMILES. “And” between values parts separate entries of the source, which are not always exact repeats. Identical values can stand only once.

One series has as its system PC3-DR cells. The series is described as follows: Drug combination MTT assay, SynergyFinder ZIP analysis. The format is cell-based, human. The following applies: 48 h. The procedure: (§1) Fig. 5 Effects of CuC1 in combination with taxanes and platinum agents. PC3-DR and 22Rv1 cells were co-treated with cisplatin (Cis), carboplatin (Carbo), docetaxel (Doce), or cabazitaxel (Caba) in combination with CuC1 at the indicated concentrations for 48 h. Cellular viability was evaluated using the MTT assay (number of biological replicates n = 3.) and is represented in the Supplementary Table S2. The cytotoxic effects were further analyzed, and 3D heat maps were constructed using SynergyFinder 3.0 software. The drug effects in combination (synergistic, additive, or antagonistic) were analyzed and visualized using the ZIP algorithm and are indicated by δ-score. δ > 10: Synergistic interactions (dark red area); […]: additive effect; δ < − 10: Antagonistic interactions (dark green area). A ZIP synergy score represents a mean δ overall the concentration range used.
(§2) The effect of combinational treatment with established chemotherapies was evaluated as previously reported^54. In brief, cells were exposed to individual drugs of their combinations for 48 h, and the viability was measured by MTT assay and was then analyzed using SynergyFinder 3.0 software (https://synergyfinder.fimm.fi) and the ZIP score algorithm. Statistical analysis was conducted automatically by the software using its inbuilt algorythms based on the input data type and size.

Series [1] has as its system 22Rv1 cells. The series is described as above. The class given is cell-based, human. The settings on record: 22Rv1, 48 h. Here is the method:
as §1, §2

In series [2] the test system is 22Rv1 cells. The series is described as follows: Western blotting of apoptotic markers. The format is cell-based, human. The procedure:
Fig. 3 Functional kinome profiling of STKs (serine/threonine kinases) in 22Rv1 cells and validation of results. (a) Expression of apoptotic markers. The cells were treated with CuC1 for the indicated time, and the expression of proteins was analyzed by Western blotting. (b, c) Functional kinome profiling. A heatmap displaying log2-transformed phosphorylation levels of 99 analyzed STK substrate peptides (b) and upstream kinase analysis, which predicted kinases affected by CuC1 (c). Values of the normalized kinase statistics represented by bars, where log2 < 0 indicates decreased kinase activity and log2 > 0 denotes increased activity. […] 22Rv1 cells were treated with CuC1 for 2 h and the MAPK expression was analyzed by Western blotting. β-actin was used as a loading control. The band intensity of the protein of interest was quantified using Image Lab software and normalized to the band intensity β-actin (a), or to the band intensity of non-phospho MAPK (d), and is indicated by red numbers. […]
Western blotting was performed as previously described. […] Proteins were transferred on a PVDF membrane and detected using specified primary and secondary antibodies. The protein signals were visualized and detected using the ECL chemiluminescence system (Thermo Scientific, Rockford, IL, USA). […] The signal (band) intensity was quantified using Image Lab v. […]

Another series concerns phospho-JNK1/2. The series is described as follows: Western blot analysis of MAP kinases. The format is cell-based, human. The following applies: 22Rv1, 2 h. Here is the method:
(§3) Fig. 3 Functional kinome profiling of STKs (serine/threonine kinases) in 22Rv1 cells and validation of results. (a) Expression of apoptotic markers. The cells were treated with CuC1 for the indicated time, and the expression of proteins was analyzed by Western blotting. (b, c) Functional kinome profiling. A heatmap displaying log2-transformed phosphorylation levels of 99 analyzed STK substrate peptides (b) and upstream kinase analysis, which predicted kinases affected by CuC1 (c). Values of the normalized kinase statistics represented by bars, where log2 < 0 indicates decreased kinase activity and log2 > 0 denotes increased activity. Statistically significant changes having a specificity score log2 > 1.3 are highlighted by red bars. Number of biological replicates n = 3. (d), Western blot analysis of MAP kinases. 22Rv1 cells were treated with CuC1 for 2 h and the MAPK expression was analyzed by Western blotting. β-actin was used as a loading control. The band intensity of the protein of interest was quantified using Image Lab software and normalized to the band intensity β-actin (a), or to the band intensity of non-phospho MAPK (d), and is indicated by red numbers. Full-size blots are presented in Supplementary Fig. S2.
(§4) Western blotting was performed as previously described. In brief, 22Rv1 cells were seeded in Petri dishes (1 × 10^6 cells/dish in 10 mL/dish of media), incubated overnight, and treated with the drug for a specific time. Cells were harvested by scratching, washed with cold PBS, and lysed with RIPA buffer supplemented with protease and phosphatase inhibitor cocktails. Protein lysates were separated using precast Mini-PROTEAN® TGX Stain-FreeTM gels (Bio-Rad, Hercules, CA, USA) and SDS-PAGE. Proteins were transferred on a PVDF membrane and detected using specified primary and secondary antibodies. The protein signals were visualized and detected using the ECL chemiluminescence system (Thermo Scientific, Rockford, IL, USA). […] The signal (band) intensity was quantified using Image Lab v. […]
On the technique in general: A western blot detects proteins with antibodies after separation by electrophoresis.

The test system of the next series is phospho-p38. The series is described as follows: Western blot analysis of MAP kinases. The format is cell-based, human. The following applies: 22Rv1, 2 h. Here is the method:
as §3, §4

The test system of another series is phospho-ERK1/2. The series is described as follows: Western blot analysis of MAP kinases. The class given is cell-based, human. The settings on record: 22Rv1, 2 h. Here is the method:
as §3, §4

Series [3] relates to HT-29, RPMI-7951, and MDA-MB-231 cells. More on the design: method as in PMID 33799442. The following applies: nontoxic concentrations; cited from earlier work.
Series [4] has as its target P-glycoprotein (P-gp) in PC3-DR cells (Homo sapiens, UniProt P08183). The series is described as follows: P-gp activity, calcein-AM assay. The following applies: 30 min. An excerpt:
A major contributor to docetaxel resistance is P-glycoprotein (also known as P-gp, MDR1), known to be overexpressed in PC3-DR cells. P-glycoprotein is a molecular efflux pump that actively expels various xenobiotic agents, including docetaxel, from cancer cells. Increased P-gp expression correlates with an increased IC50 for docetaxel, signifying enhanced drug resistance. […] In this assay, the non-fluorescent calcein-AM passively diffuses into cells, where it is hydrolyzed by cellular esterases into fluorescent calcein. Both calcein and its precursor are P-gp substrates and are actively transported out of P-gp-highly expressing cells (e.g. PC3-DR cells), which results in reduced intracellular fluorescence. P-gp inhibitors, such as tariquidar, block P-gp function, leading to calcein accumulation and an increase in fluorescence, which therefore can be used as a reliable indicator of reduced P-gp activity. A similar fluorescence increase is observed in the presence of docetaxel due to its competitive binding to the P-gp transporter alongside calcein[38].
Number of biological replicates n = 3. […] Number of biological replicates n = 3.
The evaluation of the activity of P-glycoprotein (P-gp) was performed using calcein-AM assay as described previously. […] The plates were incubated for 15 min, and the green calcein fluorescence was recorded using an Infinite F200PRO plate reader (TECAN). […]

Chain of P-glycoprotein (P-gp) in PC3-DR cells (P08183 whole entry): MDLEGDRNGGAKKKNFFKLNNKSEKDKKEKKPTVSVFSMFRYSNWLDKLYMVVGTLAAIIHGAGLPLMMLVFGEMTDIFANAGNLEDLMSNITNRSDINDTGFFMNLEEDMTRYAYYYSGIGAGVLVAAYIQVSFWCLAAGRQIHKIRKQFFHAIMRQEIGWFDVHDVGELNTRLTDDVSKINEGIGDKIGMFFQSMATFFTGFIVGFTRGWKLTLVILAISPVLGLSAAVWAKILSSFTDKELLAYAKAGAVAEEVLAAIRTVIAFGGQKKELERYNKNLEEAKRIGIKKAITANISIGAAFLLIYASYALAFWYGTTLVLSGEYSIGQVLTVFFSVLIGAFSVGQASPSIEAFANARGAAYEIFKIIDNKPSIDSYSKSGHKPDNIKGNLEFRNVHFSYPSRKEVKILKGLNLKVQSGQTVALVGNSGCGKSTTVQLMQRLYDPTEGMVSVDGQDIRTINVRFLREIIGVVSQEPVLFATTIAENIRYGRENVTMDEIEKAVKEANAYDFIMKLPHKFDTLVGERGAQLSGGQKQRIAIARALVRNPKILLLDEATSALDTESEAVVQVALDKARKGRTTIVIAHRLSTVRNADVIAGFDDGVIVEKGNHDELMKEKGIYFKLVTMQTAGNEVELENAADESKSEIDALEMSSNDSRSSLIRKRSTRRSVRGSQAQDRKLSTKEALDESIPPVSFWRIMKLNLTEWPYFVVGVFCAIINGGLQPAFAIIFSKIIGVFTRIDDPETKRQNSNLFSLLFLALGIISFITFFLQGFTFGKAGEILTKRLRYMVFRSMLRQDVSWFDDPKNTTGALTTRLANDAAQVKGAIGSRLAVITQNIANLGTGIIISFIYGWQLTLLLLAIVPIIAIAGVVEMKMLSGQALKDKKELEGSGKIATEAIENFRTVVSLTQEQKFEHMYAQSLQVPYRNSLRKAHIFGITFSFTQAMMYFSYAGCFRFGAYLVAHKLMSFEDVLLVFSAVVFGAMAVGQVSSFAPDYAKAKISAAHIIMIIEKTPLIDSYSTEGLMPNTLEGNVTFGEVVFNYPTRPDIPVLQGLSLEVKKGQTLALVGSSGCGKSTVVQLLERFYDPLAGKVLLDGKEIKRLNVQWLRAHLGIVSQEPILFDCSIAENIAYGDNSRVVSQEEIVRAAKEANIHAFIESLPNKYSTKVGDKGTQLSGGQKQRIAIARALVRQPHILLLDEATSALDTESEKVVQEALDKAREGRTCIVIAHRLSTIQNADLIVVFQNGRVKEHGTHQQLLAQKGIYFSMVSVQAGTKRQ

With `CO[C@@H]1[C@@H](O)[C@H](O[C@@H]2[C@@H](O)[C@H](O[C@H]3[C@H](O)[C@@H](O[C@@H]4OC[C@@H](O)[C@H](O)[C@H]4O)[C@H](O[C@H]4[C@H](O[C@H]5CC[C@]6(C)[C@@H]7CCC89C(=O)O[C@@](C)(/C=C\C=C(C)C)[C@H]8[C@@H](OC(C)=O)C[C@@]9(C)C7=CC[C@H]6C5(C)C)OC[C@@H](O)[C@@H]4O)O[C@@H]3C)O[C@H](CO)[C@H]2O)OC[C@H]1O` (some centres unmarked) [CuC1, cucumarioside C1], the “Response (% of effect)” value in the series with PC3-DR cells (CuC1 1 μM alone) was 33.69% and 25.1% and 26.58% and 38.2% and 34.475% and 30.33% and 41.47% and 24.44%; in the series on PC3-DR cells (CuC1 2 μM alone), 61.45% and 55.31% and 54.31% and 72.9% and 63.58% and 68.91% and 61.135% and 65.14%; with PC3-DR cells (CuC1 4 μM alone), 90.21% and 89.15% and 83.68% and 93.87% and 94.47% and 92.06% and 92.89% and 96.86%; with 22Rv1 cells [1] (CuC1 0.25 μM alone), 31.1% and 43.16% and 29.95% and 34.58% and 29.34% and 26.82% and 33.12% and 30.57%; in the series on 22Rv1 cells [1] (CuC1 0.5 μM alone), 81.71% and 82.23% and 73.42% and 77.37% and 76.17% and 72.77% and 72.16% and 76.9194%; in the series on 22Rv1 cells [1] (CuC1 1 μM alone), 95.8597% and 95.08% and 89.09% and 94.3% and 94.37% and 95.8% and 97.07% and 93.71%. The “signs of cell death (apoptotic markers)” value in the series with 22Rv1 cells [2] (22Rv1, 0.5 μM, 2 h) is reported as “did not induce any signs of cell death”. For the same compound, the apoptotic markers result with 22Rv1 cells [2] (22Rv1, 24 h of treatment) was “apoptotic markers such as cleaved PARP and caspase-3 were detected”. The “active (phosphorylated) JNK1/2” value in the series with phospho-JNK1/2 was “but not JNK1/2”. The “active (phosphorylated) p38” value in the series on phospho-p38 is “inhibition of active (phosphorylated) forms”. Moreover, in the series with phospho-ERK1/2, the “active (phosphorylated) ERK1/2” value is reported as “inhibition of active (phosphorylated) forms”. For the same compound, the colony formation result in series [3] is recorded as “strongly suppressed the colony formation”. Also, the “P-gp activity (calcein-AM efflux)” value in series [4] (glycosides at non-cytotoxic concentrations, controls TQD 50 nM, Doce 100 nM) is “did not result in any significant changes in calcein-AM efflux”. Also, the intracellular calcein fluorescence entry in series [4] (high cytotoxic concentrations) is given as “increase of intracellular fluorescence”.
